{"source": "patent US8105994B2", "about": "“Personal wash cleanser comprising defined alkanoyl compounds, defined fatty acyl isethionate surfactant product and skin or hair benefit agent delivered in flocs upon dilution” (priority 2010, dated 2012)", "system": "skin, intrascapular area of the back", "experiment": "14-day cumulative irritation Patch Test, cleansers diluted to 25% w/w in distilled water, occlusive patch", "protocol": "This was randomized, double-blind study. A sufficient number of subjects were recruited to ensure that 25 subjects completed the study. The 14-day cumulative irritation test was conducted as follows. Patching occurred for 14 consecutive days, except on Sundays. Patches applied on Saturday were left in place until Monday, when freshly prepared patches were applied. The designated patch test sites were approximately 2 cm×2 cm on the intrascapular area of the back. Approximately 0.2 mL of the test product was placed onto a Parke-Davis Readi-Bandage® occlusive patch that measured 2 cm×2 cm. Solutions were made by diluting the cleansers to 25% w/w in distilled water. The patch was then applied to the designated test site. The patches were secured with hypoallergenic tape (Scanpor {Allerderm} as needed). A 0.5% sodium dodecyl sulfate (SDS) solution was used as the control in the test.\nEach day following application, the patches were removed, the sites evaluated and identical patches reapplied to the same test sites. All evaluations were made using the following 6-point scoring system: • 0=No evidence of any effect • +=Barely perceptible (minimal, faint, uniform or spotty erythema) numerically equivalent to 0.5 • 1=Mild (pink, uniform erythema covering most of the contact site) • 2=Moderate (pink-red, erythema uniform in the entire contact site) • 3=Marked (bright red erythema with/without petechiae or papules) • 4=Severe (deep red erythema with/without vesiculation or weeping)\nIf a dermal reaction of 3 or 4 occur with any of the test articles at any point during the study, further patch testing on that subject was terminated at the test site involved, and the attained score was assigned to that site for the subsequent scheduled test days.\nCumulative irritation scores, which were the sum of the numerical irritation grades assigned daily during the 14-day test period, were calculated at the end of the study to compare mildness of the test products. […] The data were statistically analyzed using Tukey-Kramer Comparison, and statistical significance was determined at the 95% confidence level."}
{"smiles": "CCCCCCCCCCCCOS(=O)(=O)[O-].[Na+]", "note": "[0.5% SDS Solution, sodium dodecyl sulfate]", "values": [{"measurement": "Total irritation score compared to 0.5% SDS solution", "setting": "Table 1, first patch test (Olay products)", "value": 100, "unit": "%"}, {"measurement": "Patch test Total irritation score", "setting": "Table 1, first patch test (Olay products; 0.5% SDS control 783)", "value": 783}, {"measurement": "Total irritation score compared to 0.5% SDS solution", "setting": "Table 1, second patch test (Dove Deep Moisture)", "value": 100, "unit": "%"}, {"measurement": "Patch test Total irritation score", "setting": "Table 1, second patch test (Dove Deep Moisture; 0.5% SDS control 912)", "value": 912}]}
